From US20250188057A1, “NON-AROMATIC CYCLIC-PYRIMIDINE ANALOGS AS GLUCOSYLCERAMIDE SYNTHASE INHIBITORS” (Merck Sharp & Dohme LLC, priority 2022, published 2025) come the findings set out here.

Sequence of glucosylceramide synthase (GCS) (Q16739 whole entry): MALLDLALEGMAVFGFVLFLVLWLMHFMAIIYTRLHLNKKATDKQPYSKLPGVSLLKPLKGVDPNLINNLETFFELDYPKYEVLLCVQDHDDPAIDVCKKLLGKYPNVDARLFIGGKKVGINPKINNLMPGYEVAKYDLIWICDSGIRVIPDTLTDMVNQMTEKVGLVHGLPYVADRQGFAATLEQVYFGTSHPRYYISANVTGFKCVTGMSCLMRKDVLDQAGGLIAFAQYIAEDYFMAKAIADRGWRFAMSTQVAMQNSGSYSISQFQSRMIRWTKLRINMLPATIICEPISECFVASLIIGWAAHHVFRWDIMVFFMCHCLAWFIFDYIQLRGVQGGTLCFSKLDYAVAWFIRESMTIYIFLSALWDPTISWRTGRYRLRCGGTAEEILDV

This experiment addresses glucosylceramide synthase (GCS) (Homo sapiens (Human), UniProt Q16739). Put plainly: UDP-Glo glucosylceramide synthase biochemical assay. As to conditions: endogenous GCS in Golgi preparations isolated from human A375 malignant melanoma skin cells; UDP detection by luminescence. In a few lines:
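Endogenous GCS in A375 Golgi preparations (1.5 μg total protein) was preincubated with compound for 30 min at RT, then reacted with UDP-glucose and ceramide for 20 h at RT. UDP was detected by luciferase luminescence, normalized to DMSO and reference-inhibitor controls, with EC50 and % Emax from a 4PL fit.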
The term IC50 denotes the concentration that gives 50% inhibition. Read a high IC50 as a need for much substance. The compound `N#Cc1cnc(C2CC2)nc1N1CC2OCCN(Cc3ccccc3)C2C1` (stereo not drawn) [Compound 86, 4-(4-benzylhexahydropyrrolo[3,4-b][1,4]oxazin-6(2H)-yl)-2-cyclopropylpyrimidine-5-carbonitrile] displayed an IC50 of 937 nM.

`N#Cc1ccccc1C1CCN(c2nc(C3CC3)ncc2C#N)C1` (stereo not drawn) [Compound 87, 4-(3-(2-cyanophenyl)pyrrolidin-1-yl)-2-cyclopropylpyrimidine-5-carbonitrile]: the midpoint of inhibition, the IC50, lay at 218 nM.

As to `Cc1ccc(-c2noc(CN3CCN(c4nc(C5CC5)ncc4C#N)CC3)n2)cc1` [Compound 88, 2-cyclopropyl-4-(4-((3-(p-tolyl)-1,2,4-oxadiazol-5-yl)methyl)piperazin-1-yl)pyrimidine-5-carbonitrile], the IC50 came to 446 nM.

The compound `N#Cc1cnc(C2CC2)nc1N1C[C@@H]2C[C@H]1CN2Cc1ccc(Cl)cc1` [Compound 89, 4-((1S,4S)-5-(4-chlorobenzyl)-2,5-diazabicyclo[2.2.1]heptan-2-yl)-2-cyclopropylpyrimidine-5-carbonitrile] returned an IC50 of 352 nM.

The compound `N#Cc1cnc(C2CC2)nc1N(CC1CCC1)CC1CCCO1` (stereo not drawn) [Compound 90, 4-((cyclobutylmethyl)((tetrahydrofuran-2-yl)methyl)amino)-2-cyclopropylpyrimidine-5-carbonitrile] showed an IC50 of 1620 nM.

In the case of `N#Cc1cnc(C2CC2)nc1NC1CCc2ccc(O)cc21` (stereo not drawn) [Compound 91, 2-cyclopropyl-4-((6-hydroxy-2,3-dihydro-1H-inden-1-yl)amino)pyrimidine-5-carbonitrile], the IC50 is 379 nM.

`N#Cc1cnc(C2CC2)nc1NC1CN(C(c2ccccc2)c2ccccc2)C1` [Compound 92, 4-((1-benzhydrylazetidin-3-yl)amino)-2-cyclopropylpyrimidine-5-carbonitrile] returned an IC50 of 2900 nM.

As for `CC(C)c1nc(-c2cccnc2N2CCN(c3nc(C4CC4)ncc3C#N)CC2)no1` [Compound 93, 2-cyclopropyl-4-(4-(3-(5-isopropyl-1,2,4-oxadiazol-3-yl)pyridin-2-yl)piperazin-1-yl)pyrimidine-5-carbonitrile], 48 nM corresponded to half-maximal inhibition (IC50).

For `N#Cc1cnc(C2CC2)nc1NC1CCCc2sc(C3CCCCC3)nc21` (stereo not drawn) [Compound 94, 4-((2-cyclohexyl-4,5,6,7-tetrahydrobenzo[d]thiazol-4-yl)amino)-2-cyclopropylpyrimidine-5-carbonitrile], the IC50 is 14 nM.

`N#Cc1cnc(C2CC2)nc1NC1CCCc2sc(C3CCCC3)nc21` (stereo not drawn) [Compound 95, 4-((2-cyclopentyl-4,5,6,7-tetrahydrobenzo[d]thiazol-4-yl)amino)-2-cyclopropylpyrimidine-5-carbonitrile] had an IC50 of 19 nM.

`N#Cc1cnc(C2CC2)nc1NC1CCCc2sc(C3CCC3)nc21` (stereo not drawn) [Compound 96, 4-((2-cyclobutyl-4,5,67-tetrahydrobenzo[d]thiazol-4-yl)amino)-2-cyclopropylpyrimidine-5-carbonitrile] gave an IC50 of 46 nM.

As for `N#Cc1cnc(C2CC2)nc1OC1CCc2ccc(OC(F)(F)F)cc21` (stereo not drawn) [Compound 97, 2-cyclopropyl-4-((6-(trifluoromethoxy)-2,3-dihydro-1H-inden-1-yl)oxy)pyrimidine-5-carbonitrile], the IC50 is 18 nM.

On to `N#Cc1cnc(C2CC2)nc1OC1CCc2ccc(C(F)(F)F)cc21` (stereo not drawn) [Compound 98, 2-cyclopropyl-4-((6-(trifluoromethyl)-2,3-dihydro-1H-inden-1-yl)oxy)pyrimidine-5-carbonitrile], for which the IC50 was 23 nM.

`N#Cc1cnc(C2CC2)nc1OCC1CCN(c2ccccc2)C1` (stereo not drawn) [Compound 100, 2-cyclopropyl-4-((1-phenylpyrrolidin-3-yl)methoxy)pyrimidine-5-carbonitrile]: it took 160 nM to reach half-maximal inhibition (IC50).

As for `N#Cc1cnc(C2CC2)nc1OCC1CCC(c2ccccc2)O1` (stereo not drawn) [Compound 102, 2-cyclopropyl-4-((5-phenyltetrahydrofuran-2-yl)methoxy)pyrimidin-5-carbonitrile], half-maximal inhibition (IC50) was put at 195 nM.

On to `N#Cc1cnc(C2CC2)nc1OCC12CC(COCc3ccccc3)(CO1)C2` [Compound 103, 4-((4-((benzyloxy)methyl)-2-oxabicyclo[2.1.1]hexan-1-yl)methoxy)-2-cyclopropylpyrimidine-5-carbonitrile], for which the IC50 came out at 2080 nM.

For the compound `N#Cc1cnc(C2CC2)nc1OCC1CCCN1Cc1ccc(F)cc1` (stereo not drawn) [Compound 104, 2-cyclopropyl-4-((1-(4-fluorobenzyl)pyrrolidin-2-yl)methoxy)pyrimidine-5-carbonitrile], 1870 nM corresponded to half-maximal inhibition (IC50).

`COc1ccc(N2CCC(Oc3nc(C4CC4)ncc3C#N)C2)cc1` (stereo not drawn) [Compound 105, 2-cyclopropyl-4-((1-(4-methoxyphenyl)pyrrolidin-3-yl)oxy)pyrimidine-5-carbonitrile]: half-maximal inhibition (IC50) required 321 nM.

For `N#Cc1cnc(C2CC2)nc1OCC1CCCN1Cc1ccccc1Cl` (stereo not drawn) [Compound 106, 4-((1-(2-chlorobenzyl)pyrrolidin-2-yl)methoxy)-2-cyclopropylpyrimidine-5-carbonitrile], inhibition was half-maximal at 1330 nM (IC50).

`COc1ccc(N2CCC(COc3nc(C4CC4)ncc3C#N)C2)cc1` (stereo not drawn) [Compound 107, 2-cyclopropyl-4-((1-(4-methoxyphenyl)pyrrolidin-3-yl)methoxy)pyrimidine-5-carbonitrile]: the IC50 turned out to be 67 nM.

On to `N#Cc1cnc(C2CC2)nc1OC[C@H]1CCN(C2CCC(F)(F)CC2)C1` [Compound 108, (S)-2-cyclopropyl-4-((1-(4,4-difluorocyclohexyl)pyrrolidin-3-yl)methoxy)pyrimidine-5-carbonitrile], for which the IC50 is 3970 nM.

Turning to `Cc1nc2c(s1)CCCC2Nc1nc(C2CC2)nc(Cl)c1CO` (stereo not drawn) [Compound 109, (4-chloro-2-cyclopropyl-6-((2-methyl-4,5,6,7-tetrahydrobenzo[d]thiazol-4-yl)amino)pyrimidin-5-yl)methanol], the IC50 turned out to be 593 nM.

`OCc1c(Cl)nc(C2CC2)nc1N1Cc2nc(Br)sc2C1` [Compound 111, (4-(2-bromo-4,6-dihydro-5H-pyrrolo[3,4-d]thiazol-5-yl)-6-chloro-2-cyclopropylpyrimidin-5-yl)methanol] returned an IC50 of 3260 nM.

`OCc1c(Cl)nc(C2CC2)nc1N1Cc2nc(-c3ccccc3)oc2C1` [Compound 112, (4-chloro-2-cyclopropyl-6-(2-phenyl-4,6-dihydro-5H-pyrrolo[3,4-d]oxazol-5-yl)pyrimidin-5-yl)methanol] yielded an IC50 of 2330 nM.

Compound `OCc1c(Cl)nc(C2CC2)nc1N1CCC[C@@H]1c1ncc(-c2ccccc2)s1` [Compound 113, (R)-(4-chloro-2-cyclopropyl-6-(2-(5-phenylthiazol-2-yl)pyrrolidin-1-yl)pyrimidin-5-yl)methanol] displayed an IC50 of 750 nM.

The compound `OCc1c(Cl)nc(C2CC2)nc1N1CCc2nc(C3CC3)sc2C1` [Compound 114, (4-chloro-2-cyclopropyl-6-(2-cyclopropyl-6,7-dihydrothiazolo[5,4-c]pyridin-5(4H)-yl)pyrimidin-5-yl)methanol] displayed an IC50 of 3330 nM.

Consider `OCc1c(Cl)nc(C2CC2)nc1NC1CCCc2sc(C3CCCCC3)nc21` (stereo not drawn) [Compound 115, (4-chloro-6-((2-cyclohexyl-4,5,6,7-tetrahydrobenzo[d]thiazol-4-yl)amino)-2-cyclopropylpyrimidin-5-yl)methanol], for which the IC50 worked out at 7.5 nM.

Take `CCC(C)c1nc2c(s1)CCCC2Nc1nc(C2CC2)nc(Cl)c1CO` (stereo not drawn) [Compound 116, (4-((2-(sec-butyl)-4,5,6,7-tetrahydrobenzo[d]thiazol-4-yl)amino)-6-chloro-2-cyclopropylpyrimidin-5-yl)methanol]: the IC50 stood at 3910 nM.

`Cc1nc(N2CC(c3nc4ccccc4n3C)C2)cc(N2CC(CC(C)C)CC2=O)n1` (stereo not drawn) [Compound 117, 4-isobutyl-1-(2-methyl-6-(3-(1-methyl-1H-benzo[d]imidazol-2-yl)azetidin-1-yl)pyrimidin-4-yl)pyrrolidin-2-one] displayed an IC50 of 1140 nM.

With `Cc1nc(N2CC(c3nc4ccccc4[nH]3)C2)cc(N2CC(CC(C)C)CC2=O)n1` (stereo not drawn) [Compound 118, 1-(6-(3-(1H-benzo[d]imidazol-2-yl)azetidin-1-yl)-2-methylpyrimidin-4-yl)-4-isobutylpyrrolidin-2-one], the IC50 came to 2870 nM.

Consider `Cc1nc(N2CC(c3nc4ccccc4n3C)C2)cc(N2CC(c3ccccc3)CC2=O)n1` (stereo not drawn) [Compound 119, 1-(2-methyl-6-(3-(1-methyl-1H-benzo[d]imidazol-2-yl)azetidin-1-yl)pyrimidin-4-yl)-4-phenylpyrrolidin-2-one], for which the IC50 is 3030 nM.

Turning to `Cc1nc(N2CC(c3nc4ccccc4n3C)C2)cc(N2CC3(CCCC3)CC2=O)n1` [Compound 120, 2-(2-methyl-6-(3-(1-methyl-1H-benzo[d]imidazol-2-yl)azetidin-1-yl)pyrimidin-4-yl)-2-azaspiro[4.4]nonan-3-one], half-maximal inhibition (IC50) required 4130 nM.

For `COC(=O)c1cc(N2CC(c3nc4ccccc4n3C)C2)nc(C)n1` [Compound 121, methyl 2-methyl-6-(3-(1-methyl-1H-benzo[d]imidazol-2-yl)azetidin-1-yl)pyrimidine-4-carboxylate], the IC50 is 2820 nM.

With `C=Cc1cc(N2CC(c3nc4ccccc4n3C)C2)nc(C)n1` [Compound 122, 1-methyl-2-(1-(2-methyl-6-vinylpyrimidin-4-yl)azetidin-3-yl)-1H-benzo[d]imidazole], half-maximal inhibition (IC50) required 3430 nM.

The compound `Cc1nc2c(s1)CCCC2Nc1nc(C2CC2)nc(Cl)c1C(F)F` (stereo not drawn) [Compound 123, N-(6-chloro-2-cyclopropyl-5-(difluoromethyl)pyrimidin-4-yl)-2-methyl-4,5,6,7-tetrahydrobenzo[d]thiazol-4-amine] gave an IC50 of 841 nM.

The compound `Cc1nc2c(s1)CCCC2Nc1nc(C2CC2)nc(C)c1C#N` (stereo not drawn) [Compound 124, 2-cyclopropyl-4-methyl-6-((2-methyl-4,5,6,7-tetrahydrobenzo[d]thiazol-4-yl)amino)pyrimidine-5-carbonitrile] had an IC50 of 422 nM.
